Experimental data from patent US10760110B2, “Antibiotic testing and screening system” (priority 2017, dated 2020).
Like-named read-outs stand apart in the source and are kept apart here.

Test system: K. pneumoniae NVT1001 strains with ESBL or AmpC β-lactamase plasmids
Assay: Etest MIC of β-lactams, OmpK35/36 loss, ΔramR and/or extended-spectrum β-lactamase and AmpC β-lactamase (Table 8)
Type: cell-based, Klebsiella pneumoniae
Conditions: for MIC: Klebsiella pneumoniae
Experimental: DNA fragments of the resistance genes along with their flanking regions were amplified from clinical plasmids via PCR with specific primer pairs. The resulting PCR fragments were digested and then cloned into the plasmid pACYC177 or pACYC184. The resulting plasmids were then transformed into K. pneumoniae strain NVT1001 via electroporation. The recombinant bacteria were plated onto LB agar plates containing kanamycin (50 mg/L) or chloramphenicol (50 mg/L), and the presence of the cloned gene was confirmed via PCR and DNA sequencing.
The MICs of antibiotics were determined using the Etest (Biodisk AB, Sweden) according to the manufacturer's instructions. The MICs from the Etest, which fall between standard two-fold dilutions, were rounded up to the next highest two-fold value. The MICs of ceftazidime and cefotaxime against K. pneumoniae NVT1001 harbouring the pACYC177 plasmid with blaOXA-48 were further determined using a broth microdilution test according to the recommendations of the CLSI,^25 and the results were interpreted according to the breakpoints established by the CLSI in 2017.^25 Meanwhile, due to the lack of CLSI breakpoints in 2016 and 2017, the results for cephalothin were interpreted according to the breakpoints established by the CLSI in 2015,^26 and the results for moxifloxacin were interpreted according to the breakpoints established by the EUCAST in 2017.^27

[1] = CMY-2 on pACYC177, WT (NVT1001), read-out: MIC
[2] = CMY-2 on pACYC177, Δ35 (ΔompK35 mutant)
[3] = CMY-2 on pACYC177, Δ35/36 (ΔompK35/36 mutant)
[4] = CMY-2 on pACYC177, Δ36 (ΔompK36 mutant)
[5] = CMY-2 on pACYC177, ΔramR mutant
[6] = CMY-2 on pACYC177, ΔramRΔ35 (ΔramRΔompK35 mutant)
[7] = CMY-2 on pACYC177, ΔramRΔ35/36 (ΔramRΔompK35/36 mutant)
[8] = CMY-2 on pACYC177, ΔramRΔ36 (ΔramRΔompK36 mutant)
[9] = CTX-M-14 on pACYC177, WT (NVT1001), read-out: MIC
[10] = CTX-M-14 on pACYC177, Δ35 (ΔompK35 mutant)
[11] = CTX-M-14 on pACYC177, Δ35/36 (ΔompK35/36 mutant)
[12] = CTX-M-14 on pACYC177, Δ36 (ΔompK36 mutant)
[13] = CTX-M-14 on pACYC177, ΔramR mutant
[14] = CTX-M-14 on pACYC177, ΔramRΔ35 (ΔramRΔompK35 mutant)
[15] = CTX-M-14 on pACYC177, ΔramRΔ35/36 (ΔramRΔompK35/36 mutant)
[16] = CTX-M-14 on pACYC177, ΔramRΔ36 (ΔramRΔompK36 mutant)
[17] = CTX-M-15 on pACYC177, WT (NVT1001), read-out: MIC
[18] = CTX-M-15 on pACYC177, Δ35 (ΔompK35 mutant)
[19] = CTX-M-15 on pACYC177, Δ35/36 (ΔompK35/36 mutant)
[20] = CTX-M-15 on pACYC177, Δ36 (ΔompK36 mutant)
[21] = CTX-M-15 on pACYC177, ΔramR mutant
[22] = CTX-M-15 on pACYC177, ΔramRΔ35 (ΔramRΔompK35 mutant)
[23] = CTX-M-15 on pACYC177, ΔramRΔ35/36 (ΔramRΔompK35/36 mutant)
[24] = CTX-M-15 on pACYC177, ΔramRΔ36 (ΔramRΔompK36 mutant)
[25] = DHA-1-AmpR on pACYC177, WT (NVT1001), read-out: MIC
[26] = DHA-1-AmpR on pACYC177, Δ35 (ΔompK35 mutant)
[27] = DHA-1-AmpR on pACYC177, Δ35/36 (ΔompK35/36 mutant)
[28] = DHA-1-AmpR on pACYC177, Δ36 (ΔompK36 mutant)
[29] = DHA-1-AmpR on pACYC177, ΔramR mutant
[30] = DHA-1-AmpR on pACYC177, ΔramRΔ35 (ΔramRΔompK35 mutant)
[31] = DHA-1-AmpR on pACYC177, ΔramRΔ35/36 (ΔramRΔompK35/36 mutant)
[32] = DHA-1-AmpR on pACYC177, ΔramRΔ36 (ΔramRΔompK36 mutant)
[33] = SHV-12 on pACYC177, WT (NVT1001), read-out: MIC
[34] = SHV-12 on pACYC177, Δ35 (ΔompK35 mutant)
[35] = SHV-12 on pACYC177, Δ35/36 (ΔompK35/36 mutant)
[36] = SHV-12 on pACYC177, Δ36 (ΔompK36 mutant)
[37] = SHV-12 on pACYC177, ΔramR mutant
[38] = SHV-12 on pACYC177, ΔramRΔ35 (ΔramRΔompK35 mutant)
[39] = SHV-12 on pACYC177, ΔramRΔ35/36 (ΔramRΔompK35/36 mutant)
[40] = SHV-12 on pACYC177, ΔramRΔ36 (ΔramRΔompK36 mutant)
[41] = no supplemental plasmid, WT (NVT1001), read-out: MIC
[42] = no supplemental plasmid, Δ35 (ΔompK35 mutant)
[43] = no supplemental plasmid, Δ35/36 (ΔompK35/36 mutant)
[44] = no supplemental plasmid, Δ36 (ΔompK36 mutant)
[45] = no supplemental plasmid, ΔramR mutant
[46] = no supplemental plasmid, ΔramRΔ35 (ΔramRΔompK35 mutant)
[47] = no supplemental plasmid, ΔramRΔ35/36 (ΔramRΔompK35/36 mutant)
[48] = no supplemental plasmid, ΔramRΔ36 (ΔramRΔompK36 mutant)

SMILES: C[C@@H](O)[C@H]1C(=O)N2C(C(=O)O)=C(S[C@@H]3CN[C@H](C(=O)N(C)C)C3)[C@H](C)[C@H]12 [Meropenem]
- MIC [1]: 0.25 µg/mL
- MIC [2]: 0.25 µg/mL
- MIC [3]: 16 µg/mL
- MIC [4]: 2 µg/mL
- MIC [5]: 0.25 µg/mL
- MIC [6]: 0.25 µg/mL
- MIC [7]: 8 µg/mL
- MIC [8]: 8 µg/mL
- MIC [9]: 0.06 µg/mL
- MIC [10]: 0.125 µg/mL
- MIC [11]: 2 µg/mL
- MIC [12]: 0.125 µg/mL
- MIC [13]: 0.125 µg/mL
- MIC [14]: 0.125 µg/mL
- MIC [15]: 2 µg/mL
- MIC [16]: 2 µg/mL
- MIC [17]: 0.25 µg/mL
- MIC [18]: 0.25 µg/mL
- MIC [19]: 8 µg/mL
- MIC [20]: 0.25 µg/mL
- MIC [21]: 0.25 µg/mL
- MIC [22]: 0.25 µg/mL
- MIC [23]: 4 µg/mL
- MIC [24]: 4 µg/mL
- MIC [25]: 0.25 µg/mL
- MIC [26]: 0.25 µg/mL
- MIC [27]: 8 µg/mL
- MIC [28]: 0.25 µg/mL
- MIC [29]: 0.125 µg/mL
- MIC [30]: 0.25 µg/mL
- MIC [31]: 4 µg/mL
- MIC [32]: 8 µg/mL
- MIC [33]: 0.125 µg/mL
- MIC [34]: 0.125 µg/mL
- MIC [35]: 1 µg/mL
- MIC [36]: 0.125 µg/mL
- MIC [37]: 0.06 µg/mL
- MIC [38]: 0.06 µg/mL
- MIC [39]: 2 µg/mL
- MIC [40]: 1 µg/mL
- MIC [41]: 0.06 µg/mL
- MIC [42]: 0.06 µg/mL
- MIC [43]: 0.5 µg/mL
- MIC [44]: 0.06 µg/mL
- MIC [45]: 0.06 µg/mL
- MIC [46]: 0.06 µg/mL
- MIC [47]: 2 µg/mL
- MIC [48]: 2 µg/mL

SMILES: CO[C@@]1(NC(=O)Cc2cccs2)C(=O)N2C(C(=O)O)=C(COC(N)=O)CS[C@@H]21 [Cefoxitin]
- MIC [1]: > 256 µg/mL
- MIC [2]: > 256 µg/mL
- MIC [3]: > 256 µg/mL
- MIC [4]: > 256 µg/mL
- MIC [5]: > 256 µg/mL
- MIC [6]: > 256 µg/mL
- MIC [7]: > 256 µg/mL
- MIC [8]: > 256 µg/mL
- MIC [9]: 4 µg/mL
- MIC [10]: 8 µg/mL
- MIC [11]: 64 µg/mL
- MIC [12]: 16 µg/mL
- MIC [13]: 64 µg/mL
- MIC [14]: 64 µg/mL
- MIC [15]: > 256 µg/mL
- MIC [16]: > 256 µg/mL
- MIC [17]: 4 µg/mL
- MIC [18]: 8 µg/mL
- MIC [19]: 64 µg/mL
- MIC [20]: 16 µg/mL
- MIC [21]: 64 µg/mL
- MIC [22]: 64 µg/mL
- MIC [23]: > 256 µg/mL
- MIC [24]: > 256 µg/mL
- MIC [25]: > 256 µg/mL
- MIC [26]: > 256 µg/mL
- MIC [27]: > 256 µg/mL
- MIC [28]: > 256 µg/mL
- MIC [29]: > 256 µg/mL
- MIC [30]: > 256 µg/mL
- MIC [31]: > 256 µg/mL
- MIC [32]: > 256 µg/mL
- MIC [33]: 4 µg/mL
- MIC [34]: 8 µg/mL
- MIC [35]: 128 µg/mL
- MIC [36]: 16 µg/mL
- MIC [37]: 64 µg/mL
- MIC [38]: 64 µg/mL
- MIC [39]: > 256 µg/mL
- MIC [40]: > 256 µg/mL
- MIC [41]: 4 µg/mL
- MIC [42]: 4 µg/mL
- MIC [43]: 128 µg/mL
- MIC [44]: 16 µg/mL
- MIC [45]: 64 µg/mL
- MIC [46]: 64 µg/mL
- MIC [47]: > 256 µg/mL
- MIC [48]: > 256 µg/mL
- effects on the MIC (production of ESBLs tested alone): no significant (≥4-fold) effects
